The target of the experiment is Serine/threonine-protein phosphatase 2A catalytic subunit alpha (Homo sapiens) (UniProt P67775). Description: Inhibitory activity against protein phosphatase (PP2A) using fluorescein diphosphate as substrate.
Serine/threonine-protein phosphatase 2A catalytic subunit alpha (Homo sapiens), sequence (P67775 whole entry, looked up): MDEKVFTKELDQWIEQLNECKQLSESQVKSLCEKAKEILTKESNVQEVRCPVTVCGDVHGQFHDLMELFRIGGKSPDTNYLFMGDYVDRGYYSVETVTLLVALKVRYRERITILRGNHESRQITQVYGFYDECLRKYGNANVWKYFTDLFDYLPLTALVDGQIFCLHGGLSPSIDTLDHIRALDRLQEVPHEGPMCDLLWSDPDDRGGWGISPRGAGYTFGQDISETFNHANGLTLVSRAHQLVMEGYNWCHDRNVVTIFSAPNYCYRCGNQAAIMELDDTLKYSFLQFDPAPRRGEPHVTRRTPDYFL

Compound `C=C([C@@H](O)C[C@H](O)[C@@]1(C)CC[C@H](C(C)(C)O)O1)[C@H]1CC[C@H]2O[C@@H]([C@]3(C)CC[C@@H](Br)C(C)(C)O3)CC[C@]2(C)O1` gave a half-maximal inhibitory concentration (IC50) of less than 10 µM. Under `CC(C)(O)[C@H]1CC[C@](C)([C@@H](O)CC[C@](O)(CO)C2=CC[C@H]3O[C@@H]([C@]4(C)CC[C@@H](Br)C(C)(C)O4)CC[C@]3(C)O2)O1` stands less than 10 µM.

One may read the IC50 as the concentration that gives 50% inhibition. A higher IC50 goes with weaker potency in that assay.

(Values after BindingDB's records for doi:10.1016/s0960-894x(03)00136-7 (2003).)
